Values quoted from earlier work in US8003783B2, “17B-hydroxysteroid dehydrogenase inhibitors” (Sterix Limited, priority 2004, dated 2011).

Assays:
E1-STS = molecular target: T1, E1-STS (Homo sapiens, UniProt P08842); set-up: dose or concentration left out as unconfirmed; details: intact MCF-7 cells; cited from earlier work
T1 construct: endogenous in cells; host or cells: MCF-7 human breast cancer cells
T1 sequence (P08842 22-583): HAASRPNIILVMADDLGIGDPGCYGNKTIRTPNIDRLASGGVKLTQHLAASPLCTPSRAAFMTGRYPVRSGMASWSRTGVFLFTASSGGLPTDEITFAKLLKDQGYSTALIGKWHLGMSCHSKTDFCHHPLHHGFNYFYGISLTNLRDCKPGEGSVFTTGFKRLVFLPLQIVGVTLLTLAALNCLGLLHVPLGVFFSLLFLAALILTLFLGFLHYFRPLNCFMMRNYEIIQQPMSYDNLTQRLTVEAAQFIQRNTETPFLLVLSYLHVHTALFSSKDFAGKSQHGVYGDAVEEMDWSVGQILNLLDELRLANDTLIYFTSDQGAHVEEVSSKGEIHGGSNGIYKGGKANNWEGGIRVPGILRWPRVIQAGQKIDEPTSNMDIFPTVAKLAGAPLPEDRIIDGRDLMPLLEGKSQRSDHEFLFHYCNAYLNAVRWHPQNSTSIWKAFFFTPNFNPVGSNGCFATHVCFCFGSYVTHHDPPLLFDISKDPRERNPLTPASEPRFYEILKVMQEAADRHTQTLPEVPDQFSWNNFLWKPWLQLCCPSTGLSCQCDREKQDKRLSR

rat liver E1-STS = molecular target: T2, rat liver E1-STS (Rattus norvegicus, UniProt P15589); details: administered orally or subcutaneously; cited from earlier work
T2 construct: samples of liver tissue were obtained and oestrone sulphatase activity assayed; from tissue; host or cells: rat liver
T2 sequence (P15589 20-577): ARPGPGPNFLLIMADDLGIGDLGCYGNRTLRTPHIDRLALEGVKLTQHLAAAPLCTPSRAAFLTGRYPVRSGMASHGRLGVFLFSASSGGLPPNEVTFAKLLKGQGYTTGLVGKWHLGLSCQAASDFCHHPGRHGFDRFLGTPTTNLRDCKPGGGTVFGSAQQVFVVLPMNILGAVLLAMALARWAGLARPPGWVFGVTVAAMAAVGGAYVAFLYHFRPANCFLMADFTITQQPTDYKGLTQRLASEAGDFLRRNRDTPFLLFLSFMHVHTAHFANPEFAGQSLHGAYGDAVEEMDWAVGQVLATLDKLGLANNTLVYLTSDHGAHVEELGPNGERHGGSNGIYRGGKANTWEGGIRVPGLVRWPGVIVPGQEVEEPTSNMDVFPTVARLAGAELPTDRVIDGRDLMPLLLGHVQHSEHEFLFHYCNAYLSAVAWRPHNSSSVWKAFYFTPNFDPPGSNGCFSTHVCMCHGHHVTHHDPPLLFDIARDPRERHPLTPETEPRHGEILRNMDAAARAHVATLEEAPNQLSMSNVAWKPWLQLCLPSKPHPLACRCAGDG

rat liver DHA-STS = molecular target: T3, rat liver DHA-STS (Rattus norvegicus, UniProt P15589); details: administered orally or subcutaneously; cited from earlier work
T3 construct: from tissue; host or cells: rat liver
T3 sequence (P15589 20-577): T2 sequence (P15589 20-577)

rats = details: cited from earlier work

SMILES: C[C@]12CC[C@@H]3c4ccc(OS(N)(=O)=O)cc4CC[C@H]3[C@@H]1CCC2=O [EMATE, oestrone-3-sulphamate]
- inhibition of E1-STS activity (E1-STS): more than 99%
- inhibition of rat liver E1-STS activity (rat liver E1-STS): 99%
- inhibition of rat liver DHA-STS activity (rat liver DHA-STS): 99%
- oral uterotrophic activity relative to oestradiol (rats): 100 times
